Test results taken from US10519118B2, “KDM1A inhibitors for the treatment of disease” (Imago Biosciences, Inc., priority 2015, dated 2019).
Values joined by “and” are separate entries in the source; they are usually repeats but may differ in a detail not shown here. Equal entries are not always repeated.

What was measured:
Assay type in all cases: physicochemical
[1] = Solvent solubility assessment with increasing volumes of solvent; parameters: key to Solubility observation: # = clear solution; x = suspension
Experimental: Example 1 was treated with increasing volumes of solvent (2-propanol (IPA), acetone, methylethyl ketone, ethyl acetate, tetrahydrofuran, acetonitrile, 1,4-dioxane, 90:10 IPA:water, 90:10 THF:water, tert-butylmethyl ether (MTBE), and n-heptane) until the material fully dissolved or until a maximum of 100 vol. had been used. After each addition of solvent, the system was stirred at 25° C. for 10 min before the addition of a new aliquot of solvent. Example 1 was readily soluble in 2-propanol (IPA), acetone, methylethyl ketone, ethyl acetate, tetrahydrofuran, acetonitrile, 1,4-dioxane, 90:10 IPA:water, and 90:10 THF:water, dissolving readily in 10 vol. solvent. MTBE and n-heptane were identified as anti-solvents when Example 1 was not soluble in 100 vol. solvent.
Amorphous Example 1 (10 mg) was treated with increasing volumes of solvent at 25° C. with stirring (Table #). […] For those instances where dissolution was not observed, the samples were placed at 50° C. for 10 minutes. To all samples still in suspension, a further 10 volumes of solvents were added and the sample placed at 25° C. The temperature was then once again increased to 50° C. and maintained until the end of the experiment. Further solvent was added until the material fully dissolved or until a maximum of 70 volumes had been used. Hydrochloric acid was then added (1.1 equivalents) to all samples. A cooling ramp was set to 5° C. at 0.1° C./min and the solutions or oils were stirred at this temperature overnight, yielding oils or solutions.
Crystalline bis tosylate Form 2 (30 mg) was treated with increasing volumes of solvent (n-Heptane, diethyl ether, ethyl acetate, isopropyl acetate, methylisobutyl ketone, 2-propanol, methylethyl ketone, acetone, dimethyl sulfoxide, water, tert-butylmethyl ether, cyclohexane, 1,4-dioxane, toluene, chloroform, 1,2-dimethoxyethane, tetrahydrofuran, N,N-dimethylformamide, acetonitrile, nitromethane, N-methylpyrrolidone, tetrahydrofuran:water 95:5, 2-propanol:water 95:5, or acetone:water 95:5 at 5, 10, 20, 30, 50, 70, or 100 vol total) until the material fully dissolved or until a maximum of 100 vol had been added. After each addition of solvent, the system was shaken gently for 10 minutes at 50° C. and then allowed to stand at ambient conditions for 5 minutes before the addition of a new aliquot of solvent. After the assessment was completed, any suspensions obtained were matured and clear solutions were cooled to 4° C. and held isothermally.

[2] = Chemical stability of Example 1 free base lots, HPLC purity re-test
Experimental: Various lots of Example 1 were analyzed by HPLC shortly after synthesis (analysis from 1-24 hours post-synthesis) and re-tested for purity a unit of time later.
Purity analysis was performed on an Agilent HP1100 series system equipped with a diode array detector and using ChemStation software vB.04.03 using one of the methods detailed below: […]

[3] = Solid-state storage stability at elevated temperature and humidity (40° C./75% RH, 25° C./95-97% RH)
[4] = Gravimetric vapour sorption (GVS), hygroscopicity; settings: for hygroscopicity: in words
Experimental: Typically 5-20 mg of sample was placed in a tared mesh stainless steel basket under ambient conditions. The sample was loaded and unloaded at 40% RH and 25° C. (typical room conditions). A moisture sorption isotherm was performed as outlined below (2 scans giving 1 complete cycle). The standard isotherm was performed at 25° C. at 10% RH intervals over a 0-90% RH range. Data analysis was carried out using Microsoft Excel using DVS Analysis Suite v6.2 (or 6.1 or 6.0).
Sorption isotherms were obtained using a SMS DVS Intrinsic moisture sorption analyzer, controlled by DVS Intrinsic Control software v1.0.1.2 (or v 1.0.1.3). The sample temperature was maintained at 25° C. by the instrument controls. The humidity was controlled by mixing streams of dry and wet nitrogen, with a total flow rate of 200 mL/min The relative humidity was measured by a calibrated Rotronic probe (dynamic range of 1.0-100% RH), located near the sample. The weight change, (mass relaxation) of the sample as a function of % RH was constantly monitored by the microbalance (accuracy±0.005 mg).

CN1CCN(C(=O)[C@H](CCCN[C@@H]2C[C@H]2c2ccc(F)cc2)NC(=O)c2ccc(-n3ccnn3)cc2)CC1.Cc1ccc(S(=O)(=O)O)cc1.Cc1ccc(S(=O)(=O)O)cc1 [Example 1 bis tosylate Form 2, N—((S)-5-((1R,2S)-2-(4-fluorophenyl)cyclopropylamino)-1-(4-methylpiperazin-1-yl)-1-oxopentan-2-yl)-4-(1H-1,2,3-triazol-1-yl)benzamide bis-tosylate Form 2]
solvent volume needed to dissolve ([1]; crystalline bis tosylate Form 2, all other solvents tested incl. water, remained a suspension): > 100 vol | solvent volume needed to dissolve ([1]; crystalline bis tosylate Form 2, dimethylsulfoxide and N,N-dimethylformamide, 50° C. shaking): 5 vol | solvent volume needed to dissolve ([1]; crystalline bis tosylate Form 2, tetrahydrofuran:water 95:5): 10 vol

CN1CCN(C(=O)C(CN[C@@H]2C[C@H]2c2ccc(F)cc2)NC(=O)c2ccc(-n3ccnn3)cc2)CC1 (stereo partly drawn) [Example 1, N-[3-[[(1R,2S)-2-(4-Fluorophenyl)cyclopropyl]amino]-1-(4-methylpiperazin-1-yl)-1-oxopropan-2-yl]-4-(1H-1,2,3-triazol-1-yl)benzamide]
Re-Test Purity ([2]; free base Lot 1, 49 days between tests): 82% | Re-Test Purity ([2]; free base Lot 2, 16 days between tests): 72% | stability at ambient conditions ([2]; free base form): degrades at ambient conditions over time | Initial Purity ([2]; free base lots, HPLC 1-24 hours post-synthesis): 93% and 81% | Solubility observation ([1]; 1-Butanol, 10 vol 25° C.): # | Solubility observation ([1]; 1-Propanol, 10 vol 25° C.): # | Solubility observation ([1]; 2-Propanol, 10 vol 25° C.): # | solvent volume needed to dissolve ([1]; 25° C., IPA, acetone, methylethyl ketone, ethyl acetate, THF, acetonitrile, 1,4-dioxane, 90:10 IPA:water, 90:10 THF:water): 10 vol | solvent volume needed to dissolve ([1]; 25° C., MTBE and n-heptane (anti-solvents)): > 100 vol | Solubility observation ([1]; Acetone, 10 vol 25° C.): # | Solubility observation ([1]; Acetone:Water (90:10), 10 vol 25° C.): # | Solubility observation ([1]; Acetone:Water (95:5), 10 vol 25° C.): # | Solubility observation ([1]; Acetonitrile, 10 vol 25° C.): # | Solubility observation ([1]; Anisole, 10 vol 25° C.): # | Solubility observation ([1]; Cyclohexane, 10 vol 25° C.): oil | Solubility observation ([1]; Cyclohexane, 10 vol 50° C.): oil | Solubility observation ([1]; Cyclohexane, 20 vol 25° C.): oil | Solubility observation ([1]; Cyclohexane, 20 vol 50° C.): oil | Solubility observation ([1]; Cyclohexane, 40 vol 50° C.): oil | Solubility observation ([1]; Cyclohexane, 70 vol 50° C.): oil | Solubility observation ([1]; Dichloromethane, 10 vol 25° C.): # | Solubility observation ([1]; Diethyl ether, 10 vol 25° C.): oil | Solubility observation ([1]; Diethyl ether, 10 vol 50° C.): oil | Solubility observation ([1]; Diethyl ether, 20 vol 25° C.): oil | Solubility observation ([1]; Diethyl ether, 20 vol 50° C.): oil | Solubility observation ([1]; Diethyl ether, 40 vol 50° C.): oil | Solubility observation ([1]; Diethyl ether, 70 vol 50° C.): oil | Solubility observation ([1]; Dimethyl sulfoxide, 10 vol 25° C.): # | Solubility observation ([1]; EtOH:Water (85:15), 10 vol 25° C.): # | Solubility observation ([1]; Ethanol, 10 vol 25° C.): # | Solubility observation ([1]; IPA:Water (85:15), 10 vol 25° C.): # | Solubility observation ([1]; Isopropyl acetate, 10 vol 25° C.): # | Solubility observation ([1]; MEK, 10 vol 25° C.): # | Solubility observation ([1]; MIBK, 10 vol 25° C.): # | Solubility observation ([1]; MeOH:Water (85:15), 10 vol 25° C.): # | Solubility observation ([1]; Methanol, 10 vol 25° C.): # | Solubility observation ([1]; Methyl acetate, 10 vol 25° C.): # | Solubility observation ([1]; Propyl acetate, 10 vol 25° C.): # | Solubility observation ([1]; Toluene, 10 vol 25° C.): # | Solubility observation ([1]; Water, 10 vol 25° C.): x | Solubility observation ([1]; Water, 10 vol 50° C.): x | Solubility observation ([1]; Water, 20 vol 25° C.): x | Solubility observation ([1]; Water, 20 vol 50° C.): oil | Solubility observation ([1]; Water, 40 vol 50° C.): oil | Solubility observation ([1]; Water, 70 vol 50° C.): oil | solvent volume needed to dissolve ([1]; amorphous free base, most solvents at 25° C.): 10 volumes | observation in solvent ([1]; amorphous free base, water, diethyl ether, cyclohexane, up to 70 volumes, 25-50° C.): oils eventually formed | behaviour at high humidity ([3]; free base form): deliquesces | stability at elevated storage conditions ([3]; free base, 25° C./97% RH and 40° C./75% RH): deliquesced | hygroscopicity [4]: hygroscopic

O=C(O)C(O)C(O)C(=O)O (stereo not drawn) [tartrate]
Storage at 40° C. and 75% RH (form by XRPD) ([3]; one week / 7 days): no change in form was observed | Storage at both 40° C. and 75% RH and 25° C. and 95% RH (form, purity) ([3]; scaled-up salts): changes in crystallinity and form | GVS water uptake ([4]; 25° C., full cycle 0-90% RH): ~30 % w/w | hygroscopicity [4]: highly hygroscopic
